Test results as given in publication PMC5684143, “New melanocortin-like peptide of E. coli can suppress inflammation via the mammalian melanocortin-1 receptor (MC1R): possible endocrine-like function for microbes of the gut” (NPJ Biofilms and Microbiomes, 2017).

Tests used:
[1] = test system: RAW 264.7 cells; test: HMGB1-induced TNF release by RAW 264.7 macrophage-like cells; format: cell-based, murine
Method: Fig. 1 MECO-1 attenuates HMGB1-induced TNF release by macrophages in culture. Murine macrophage-like RAW 264.7 cells were incubated for up to 24 h with purified recombinant HMGB1 (0.1 mg/ml) in the absence or presence of MECO-1 (Panel a), or alpha-MSH (Panel b), at 10^−10 and 10^−12 M. The levels of TNF in the culture medium were determined by ELISA and expressed as mean ± SEM of two independent experiments (in duplicate). *p < 0.05, **p < 0.01 vs. control (“HMGB1 alone”). […] In panels c and d, cells were incubated with HMGB1 for 6 h with or without MECO-1 or alpha-MSH (10^−16–10^−6 M). Data represent mean ± SEM of three independent experiments performed in duplicate. With 10^−14 M peptide, results were significant at *p < 0.05, and at 10^−12 M or more were typically **p < 0.01. In our experiments, at concentrations of MECO-1, alpha-MSH, and ACTH of around 1 nM and higher, dose response curves often reverse direction, i.e., turn upward. The reversal is more clearly seen in Fig. 2. The mechanism of the reversal is not known. (Desensitization, receptor inactivation, receptor internalization, and dissociation of dimeric receptors are all plausible candidates.) As a result, the shape of the lower part of the curve and the actual inflection point may vary from experiment to experiment. This feature may be missed when results of several experiments are combined
(§1) Murine macrophage-like RAW 264.7 cells were obtained from American Type Culture Collection, and were grown in Dulbecco’s Modified Eagle’s Medium (DMEM, Life Technologies) containing 10% (vol/vol) heat-inactivated fetal bovine serum (FBS, Hyclone Lab. Inc.), penicillin 100 U/ml, and streptomycin 100 μg/ml (BioWhittaker Inc.). Cells were suspended in medium and incubated in 24-well or 48-well tissue-culture plates overnight in a humidified incubator (37 °C, 5% CO2). Growth medium was removed and replaced by Opti-MEM I serum-free medium (Life Technologies) overnight. In the experiments, cell monolayers were stimulated with HMGB1 or LPS, in the absence or presence of MECO-1 or alpha-MSH; cell-free supernatants were assayed for TNF by ELISA or HMGB1 by western blotting.
(§2) Concentrations of TNF and IL-6 were each determined using a commercially available enzyme-linked immunosorbent assay (ELISA) kit (R&D System Inc.) as previously described.[34] The levels of TNF or IL-6 were calculated with reference to standard curves.
Fig. 3 Antibody to MC1R blocks suppressant effect of MECO-1 and alpha-MSH. Murine macrophage-like RAW 264.7 cells were pretreated with specific antibodies (“anti-MC1R Ab”) against melanocortin-1 receptor (MC1R) for 10 min prior to addition of HMGB1 in the absence or presence of MECO-1 or alpha-MSH at 10^−12 M. At 6 h, the TNF content of the cell-free medium was determined by ELISA, and expressed as mean ± SEM of two independent experiments performed in duplicate. ACTH at the same concentration gave results that were indistinguishable from those of alpha-MSH and MECO-1 (data not shown)

[2] = test system: RAW 264.7 cells; test: LPS-induced TNF release by RAW 264.7 cells; format: cell-based, murine; settings: LPS 10 ng/ml; peptides 10^-12 M; agouti 10-10^5 pM
Method: as §1, §2
Fig. 2 Cytokine-induced TNF release inhibited by MECO-1. a Lipopolysaccharide (LPS), derived from the cell wall of Gram-negative bacteria, is a TLR4 and TLR2 agonist. RAW 264.7 cells were treated with MECO-1 and LPS simultaneously and incubated overnight. Supernatants were tested for TNF with ELISA. b Poly I:C, synthetic double stranded RNA, is recognized by TLR3. RAW 264.7 cells were pre-treated with MECO-1 and then stimulated with Poly I:C. Supernatants were tested in ELISA by TNF. c Peptidoglycan (PGN), another TLR2 agonist, is ubiquitous in the cell wall of bacteria. RAW 264.7 cells were pre-treated with MECO-1 and then stimulated with PGN; after overnight stimulation, supernatants were harvested and tested for TNF ELISA. d HMGB-1. Each vertical bar is the mean of three experimental points, using HMGB-1 to induce TNF release. Three sets of three experiments were used for the measurement of inhibition
Fig. 5 a Bioactive analogues of MECO-1. Murine macrophage-like RAW 264.7 cells were incubated with lipopolysaccharide (LPS, 4 ng/ml) in the absence or presence of MECO-1 or BACTN or BACFR, synthetic peptides based on the C-termini of EF-G of Bacteroides thetaiotamicron and Bacteroides fragilis. EFG-2 refers to human mitochondrial EFG-2 (mtEFG2). For Bacteroides thetaiotamicron, we used a 38-mer consisting of residues 681–703 shown in Fig. 4c followed by 704–718 QDKLIKDFEAKQTEE. For Bacteroides fragilis, we used a 33-mer consisting of residues, 681–703 shown in Fig. 4c followed by 704–713 = QDKLIKDFES. At 6 h after stimulation, aliquots of cell-free medium were examined. In other experiments, the synthetic peptide based on human mitochondrial EF-G1 (mtEFG1) gave results indistinguishable from EF-G2 (data not shown). The precise structure of the synthetic peptides is indicated in the text (see section “Results” and Table 1). Shown is a representative experiment.

[3] = test system: human peripheral blood mononuclear cells (PBMC); test: HMGB1-induced TNF release by human PBMC-derived macrophages; format: cell-based; settings: differentiated human macrophages; HMGB1 6 hours; ELISA; three independent experiments in duplicate
Method: Human PBMC were isolated by density gradient through Ficoll-Paque^TM PLUS centrifugation (Amersham Pharmacia Biotech), and suspended in RPMI 1640 containing 10% (vol/vol) heat-inactivated human serum (BioWhittaker Inc.), penicillin 100 U/ml, and streptomycin 100 μg/ml, and incubated at 37 °C in a humidified incubator with 5% CO2 atmosphere overnight. Non-adherent cells were discarded. Adherent monocytes were washed twice with PBS and were then suspended in 12-well and 24-well tissue culture plates and incubated in the same medium but now enriched with 2.5 ng/ml macrophage colony-stimulating factor for 5–7 days.[33] […]
as §2
Human peripheral blood mononuclear cells (PBMC) were isolated by density gradient centrifugation through Ficoll-PaqueTM PLUS, and cultured for 5-7 days in medium containing macrophage colony-stimulating factor (2.5 ng/ml). […] The content of TNF in the cell-free medium was determined by ELISA and expressed as mean ± SEM of three independent experiments performed in duplicate. *p< 0.05, **p< 0.01 vs. control (=HMGB1 alone without added melanocortin peptide).

[4] = test system: RAW 264.7 cells; test: LPS-induced HMGB1 release by RAW 264.7 cells (western blot); format: cell-based, murine; settings: LPS 100 ng/ml, peptide 10^-10 M, 16-20 hrs, four independent experiments, P < 0.01
Method: as §1, with “In the experiments, cell monolayers were stimulated with HMGB1 or LPS, in the absence or presence of MECO-1 or alpha-MSH; cell-free supernatants were assayed for TNF by ELISA or HMGB1 by western blotting.” left out
The levels of HMGB1 in the culture medium or murine serum were measured by western immunoblotting as previously described.[30] […] The relative band intensity was quantified by using the NIH image 1.59 software. The levels of HMGB1 (expressed as % maximum effect) were calculated with reference to standard curves generated with purified rHMGB1 and expressed as mean ± SEM of four experiments.
Murine macrophage-like RAW 264.7 cells were incubated with LPS (100 ng/ml) in the absence or presence of MECO-1 or alpha-MSH at 10^-10 M. At 16-20 hrs after stimulation, aliquots of cell-free medium were examined. HMGB1 levels in the (conditioned) culture medium were expressed as mean ± SEM of four independent experiments with the peak level (obtained with LPS) set at 100%. […]

Compound: O=S(=O)(NCCNC/C=C/c1ccc(Br)cc1)c1cccc2cnccc12 [H89]
- effect of H89 on peptide-mediated reduction of HMGB1-induced TNF accumulation ([1]; H89 1mM added 10 minute before, peptides 10^-10 M, 6h, two independent experiments in duplicate): abrogated the effects of the three peptides

Compound: Mouse agouti (93-132)-NH2
- effect of agouti on attenuation by MECO-1 and alpha-MSH of LPS-induced TNF release [2]: reversed the attenuation

Compound: adrenocorticotropin (SYSMEHFRWGKPVGKKRRPVKVYPNGAEDESAEAFPLEF; Corticotropin; UniProt P01189 138-176, looked up) [ACTH, mammalian melanocortin hormone ACTH (1-39), purchased from Bachem]
- suppression of HMGB-1-induced TNF release ([1]; RAW 264.7 cells, data not shown): highly significant suppression, typically in the subpicomolar range
- TNF accumulation with HMGB1 on co-incubation with peptide ([1]; peptide 10^−12–10^−8 M): substantially reduced
- attenuation of HMGB-1-induced TNF release [3]: very similar results
- LPS-induced HMGB-1 secretion [4]: indistinguishable from MECO-1 and alpha-MSH
